# Assay results from patent US9828576B2, “Cell culture” (National University of Singapore, priority 2012, dated 2017).
# “Also recorded” adds a separate entry of the source.
# Test system: bile canaliculi of hepatocyte couplets
# Assay: Bile canaliculi (BC) morphology of hepatocyte couplets in F/F microwells after drug treatment (F-actin staining, confocal imaging)
# Format: cell-based, rat
# Details: for degree of folding r of BC / vertical aspect ratio i of BC: F/F microwells with drug, compared with control F/F microwells (FIG. 6D); for BC morphology: hepatocytes in F/F microwells
# Protocol: For control, hepatocytes cultured for 48 hours in microwells were fixed in 4% para-formaldehyde (PFA) for 30 minutes. For ±Blebbistatin (Merck, 203390) or Y27632 (Sigma, Y0503) treatments, drugs were added 4 h before fixation, while soluble RGD (Sigma, G5646) was incubated with hepatocytes overnight. After fixation, the cells were rinsed by PBS and permeabilized for 30 min in TBST (0.2% Triton-X in TBS). The permeabilized cells were blocked with 1% BSA in TBST for 4 h and incubated overnight with pan-Cadherin antibody (sigma, C1821) and anti-ZO-1 antibody (life technology, 61-7300) at 4° C. as instructed in manuals. After rinsed with TBST, the cells were incubated in secondary antibodies (Life Technology, A10040 and A-31571) and phalloidin-alexa 488 (Life Technology, A12379) for 1 h in dark at room temperature. After rinsed with TBST again and incubated shortly with DAPI (Sigma, D9564), cells were mounted in mounting medium (DAKO, S3023). 3D stack of confocal microscopy images were acquired with 100×NA1.4 oil lens on a Nikon A1R Confocal Microscope.
# The selected slices of image stacks were reconstructed as maximum intensity projection or orthogonal section view. Manual segmentation was applied based on F-actin signal, because F-actin provides a better definition of BC boundaries, compared with ZO-1 (FIG. 11). Several features, such as parameter, thickness, horizontal spin size and area of bile canaliculi, were extracted subsequently.
# When cells adhered to the side of microwell only (F/P configuration), hepatocytes positioned side by side (FIG. 5C, 5D). […] To confirm the importance of cell-ECM adhesion in obtaining flat tubular BC, we treated the hepatocytes in F/F microwells on day 1 with soluble RGD peptides (250 μM, overnight) that antagonized the integrin-mediated cell-ECM adhesion while keeping the chemical signalling unperturbed. Indeed, as cells detached from the microwells, their BC rounded up to be morphologically equivalent to those observed in the P/F case (FIG. 6A).
# Therefore, we tested whether actomyosin contractility was required for the differential control of BC morphology by the spatial organization of cell-ECM adhesion. […] The resulting morphologies were similar to those obtained in the P/F configuration (FIG. 6B, 6C).
# The BC morphologies in different conditions were quantitatively assessed by two dimensionless parameters: the degree of folding and vertical aspect ratio. The degree of folding r=P^2/(4πA) was evaluated by measuring the ratio of the BC projected perimeter P to the projected area A. This morphological index r ranges from 1 (circle) upward (folded tubular structures). The vertical aspect ratio i was calculated as the ratio of the BC maximal height over maximal elongation in the XY plane. Higher vertical aspect ratio represents a thicker BC.
Structure (SMILES),degree of folding r of BC,vertical aspect ratio i of BC,BC morphology (Y27632 10 μM for 4 hours),BC morphology (blebbistatin 100 μM for 4 hours),"BC morphology (blebbistatin 100 μM for 4 hours, listed as blebbistatin +/−)"
C[C@@H](N)[C@H]1CC[C@H](C(=O)Nc2ccncc2)CC1 [Y27632],lower,higher,rounded up; also recorded: converted tubular BC into spherical ones,,
Cc1ccc2c(c1)C(=O)C1(O)CCN(c3ccccc3)C1=N2 (stereo not shown) [blebbistatin],lower,higher,,rounded up,converted tubular BC into spherical ones
